In patent publication US9790189B2, “Disubstituted 5-fluoro pyrimidine derivatives containing a sulfondiimine group” (Bayer Pharma Aktiengesellschaft, priority 2014, dated 2017):
pIC50: −log10 of the molar value. Values after ≈ are worked out from the molar mass of the structure shown.

What was measured:
[1] = tested on: A2780 cells; assay: Proliferation assay, A2780 (crystal violet); assay type: cell-based; details: Homo sapiens, 96 h; A2780, 4 days; read-out: Inhibition of A2780 cell proliferation IC50
Description: (§1) Cultivated tumour cells (HeLa, human cervical tumour cells, ATCC CCL-2; NCI-H460, human non-small cell lung carcinoma cells, ATCC HTB-177; A2780, human ovarian carcinoma cells, ECACC #93112519; DU 145, hormone-independent human prostate carcinoma cells, ATCC HTB-81; HeLa-MaTu-ADR, multidrug-resistant human cervical carcinoma cells, EPO-GmbH Berlin; Caco-2, human colorectal carcinoma cells, ATCC HTB-37; B16F10, mouse melanoma cells, ATCC CRL-6475) were plated at a density of 5,000 cells/well (DU145, HeLa-MaTu-ADR), 3,000 cells/well (NCI-H460, HeLa), 2,500 cells/well (A2780), 1,500 cells/well (Caco-2), or 1,000 cells/well (B16F10) in a 96-well multititer plate in 200 μL of their respective growth medium supplemented 10% fetal calf serum. After 24 hours, the cells of one plate (zero-point plate) were stained with crystal violet (see below), while the medium of the other plates was replaced by fresh culture medium (200 μl), to which the test substances were added in various concentrations (0 μM, as well as in the range of 0.001-10 μM; the final concentration of the solvent dimethyl sulfoxide was 0.5%). The cells were incubated for 4 days in the presence of test substances. Cell proliferation was determined by staining the cells with crystal violet: the cells were fixed by adding 20 μl/measuring point of an 11% glutaric aldehyde solution for 15 minutes at room temperature. After three washing cycles of the fixed cells with water, the plates were dried at room temperature. The cells were stained by adding 100 μl/measuring point of a 0.1% crystal violet solution (pH 3.0). After three washing cycles of the stained cells with water, the plates were dried at room temperature. The dye was dissolved by adding 100 μl/measuring point of a 10% acetic acid solution. The extinction was determined by photometry at a wavelength of 595 nm. The change of cell number, in percent, was calculated by normalization of the measured values to the extinction values of the zero-point plate (=0%) and the extinction of the untreated (0 μm) cells (=100%).

[2] = Equilibrium shake flask solubility, high throughput from DMSO solution (Method 4a); assay type: physicochemical; details: phosphate buffer pH 6.5 with 1% DMSO, aqueous buffer, phosphate buffer pH 6.5, 24 hrs, room temperature
Description: (§2) 4. Equilibrium Shake Flask Solubility Assays:
4a) High Throughput Determination of Aqueous Drug Solubility (100 mmolar in DMSO)
The high throughput screening method to determine aqueous drug solubility is based on:
Thomas Onofrey and Greg Kazan, Performance and correlation of a 96-well high throughput screening method to determine aqueous drug solubility, http://www.millipore.com/publications.nsf/a73664f9f981af8c852569b9005b4eee/e565516fb76e7435852 56da30052db77/$FILE/AN1731EN00.pdf
The assay was run in a 96-well plate format. Each well was filled with an individual compound.
All pipetting steps were performed using a robot platform.
100 μl of a 10 mmolar solution of drug in DMSO were concentrated by vacuum centrifugation and resolved in 10 μl DMSO. 990 μl phosphate buffer pH 6.5 were added. The content of DMSO amounts to 1%. The multititer plate was put on a shaker and mixed for 24 hrs at room temperature. 150 μl of the suspension were transferred to a filtration plate. After filtration using a vacuum manifold the filtrate was diluted 1:400 and 1:8000. A second microtiter plate with 20 μl of a 10 mM solution of drug in DMSO served for calibration. Two concentrations (0.005 μM and 0.0025 μM) were prepared by dilution in DMSO/water 1:1 and used for calibration. Filtrate and calibration plates were quantified by HPLC-MS/MS.
Preparation of 0.1 m Phosphate Buffer pH 6.5:
61.86 g NaCl and 39.54 mg KH2PO4 were solved in water and filled up to […]. The mixture was diluted 1:10 with water and the pH adjusted to 6.5 by NaOH.
Materials: • Millipore MultiScreenHTS-HV Plate 0.45 μm
Chromatographic conditions were as follows: • HPLC column: Ascentis Express C18 2.7 μm 4.6×30 mm • Injection volume: 1 μl • Flow: 1.5 ml/min • Mobile phase: acidic gradient • A: Water/0.05% HCOOH • B: Acetonitrile/0.05% HCOOH • 0 min→95% A 5% B • 0.75 min→5% A 95% B • 2.75 min→5% A 95% B • 2.76 min→95% A 5% B • 3 min→95% A 5% B
The areas of sample- and calibration injections were determined by using mass spectromety software (AB SCIEX: Discovery Quant 2.1.3. and Analyst 1.6.1). The calculation of the solubility value (in mg/l) was executed by an inhouse developed Excel macro.

[3] = tested on: DU145 cells; assay: Proliferation assay, DU145 (crystal violet); assay type: cell-based; details: Homo sapiens, DU-145, 96 h; DU145, 4 days; read-out: Inhibition of DU145 cell proliferation IC50
Description: as §1

[4] = tested on: NCI-H460 cells; assay: Proliferation assay, NCI-H460 (crystal violet); assay type: cell-based; details: Homo sapiens, 96 h; NCI-H460, 4 days; read-out: Inhibition of NCI-H460 cell proliferation IC50
Description: as §1

[5] = tested on: HeLa cells; assay: Proliferation assay, HeLa (crystal violet); assay type: cell-based; details: Homo sapiens, 96 h, 4 days, read-out: Inhibition of HeLa cell proliferation IC50
Description: as §1

[6] = tested on: B16F10 cells; assay: Proliferation assay, B16F10 (crystal violet); assay type: cell-based; details: Mus musculus, B16-F10, 96 h; B16F10, 4 days; read-out: Inhibition of B16F10 cell proliferation IC50
Description: as §1

[7] = Thermodynamic solubility in water from powder (Method 4b); assay type: physicochemical; details: aqueous buffer, thermodynamic from solid, phosphate buffer pH 6.5, 24 hrs, room temperature
Description: as §2
4b) Thermodynamic Solubility in Water from Powder
The thermodynamic solubility of compounds in water was determined by an equilibrium shake flask method (see for example: E. H. Kerns, L. Di: Drug-like Properties: Concepts, Structure Design and Methods, 276-286, Burlington, Mass., Academic Press, 2008). A saturated solution of the drug was prepared and the solution was mixed for 24 h to ensure that equilibrium was reached. The solution was centrifuged to remove the insoluble fraction and the concentration of the compound in solution was determined using a standard calibration curve. To prepare the sample, 2 mg solid compound was weighed in a 4 mL glass vial. 1 mL phosphate buffer pH 6.5 was added. The suspension was stirred for 24 hrs at room temperature. The solution was centrifuged afterwards. To prepare the sample for the standard calibration, 2 mg solid sample was dissolved in 30 mL acetonitrile. After sonification the solution was diluted with water to 50 mL. Sample and standards were quantified by HPLC with UV-detection. For each sample two injection volumes (5 and 50 μl) in triplicates were made. Three injection volumes (5 μl, 10 μl and 20 μl) were made for the standard. […]
The areas of sample- and standard injections as well as the calculation of the solubility value (in mg/l) were determined by using HPLC software (Waters Empower 2 FR).

[8] = tested on: Caco-2 cells; assay: Proliferation assay, Caco-2 (crystal violet); assay type: cell-based; details: Homo sapiens, 96 h; Caco-2, 4 days; read-out: Inhibition of Caco-2 cell proliferation IC50
Description: as §1

[9] = tested on: HeLa-MaTu-ADR cells; assay: Proliferation assay, HeLa-MaTu-ADR (crystal violet); assay type: cell-based; details: Homo sapiens, 96 h, 4 days, read-out: Inhibition of HeLa-MaTu-ADR cell proliferation IC50
Description: as §1

[10] = Caco-2 permeation assay (Method 5); assay type: in vitro ADME; details: human, pH 7.2, Caco-2, 2 μM test compound, 2 h
Description: Cells were maintained at 37° C. in a humidified 5% CO2 atmosphere. Medium was changed every 2-3 day. Before running the permeation assay, the culture medium was replaced by a FCS-free hepes-carbonate transport buffer (pH 7.2). For assessment of monolayer integrity the transepithelial electrical resistance (TEER) was measured. Test compounds were predissolved in DMSO and added either to the apical or basolateral compartment in final concentration of 2 μM in transport buffer. Before and after 2 h incubation at 37° C. samples were taken from both compartments. Analysis of compound content was done after precipitation with methanol by LC/MS/MS analysis. Permeability (Papp) was calculated in the apical to basolateral (A→B) and basolateral to apical (B→A) directions. […] The efflux ratio basolateral (B) to apical (A) was calculated by dividing the Papp B−A by the Papp A−B. In addition the compound recovery was calculated.

Q: With COc1cc(F)ccc1-c1nc(Nc2cc(F)cc(CS(C)(=N)=N)c2)ncc1F [Example 1, 5-Fluoro-4-(4-fluoro-2-methoxyphenyl)-N-{3-fluoro-5-[(S-methylsulfonodiimidoyl)methyl]phenyl}pyrimidin-2-amine] as the molecule, how does the pIC50 [1] read?
A: 6.70

Q: And the solubility thermodynamic at 24 h [2]?
A: 155 µg/mL (≈ 368 µM)

Q: What about the pIC50 [3] of the same molecule?
A: 6.47

Q: And the pIC50 [4]?
A: 6.45

Q: What about the pIC50 [5] of the same molecule?
A: 6.60

Q: What about the pIC50 [6] of the same molecule?
A: 6.27

Q: What about the solubility thermodynamic at 24 h [7] of the same molecule?
A: 91 µg/mL (≈ 216 µM)

Q: And the pIC50 [8]?
A: 6.41

Q: And the pIC50 [9]?
A: 6.49

Q: What about the Papp A→B at 2 h, 2 µM ([10]; read-out: Papp A−B (Mari)) of the same molecule?
A: 5 ×10⁻⁶ cm/s

Q: What about the Papp B→A at 2 h, 2 µM ([10]; read-out: Papp B−A (Mari)) of the same molecule?
A: 28 ×10⁻⁶ cm/s
